Experimental findings from ChEMBL document CHEMBL1201862, “PubChem BioAssay data set” (2004) are described below.

Some test systems named below: 786-0; A549; ACHN; CCRF-CEM; COLO 205; HCT-15; HOP-92; Malme-3M; NCI-H522; OVCAR-8; SK-MEL-28; SN12C; SNB-75; SW-620.
Holding throughout (experiment): NCI anticancer screen, dose series, 48 h

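All cell lines were grown in 96-well plates and treated with compound for 48 hours. Here, GI50 denotes the concentration required for 50% inhibition of growth.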 Active and inactive are the calls of the source. No stated cut-off is given here; in the data, active = GI50 up to about 1.1 µM and inactive = higher.

On to `N#CC(C(=N/NC(N)=S)/C(=N\NC(N)=S)C(C#N)c1ccccc1)c1ccccc1` (stereo not drawn), for which the GI50 in the experiment on 786-0 is > 10 µM (inactive); in the experiment on A549, > 10 µM (inactive); in the experiment with ACHN, > 10 µM (inactive); in the experiment on CCRF-CEM it was > 10 µM (inactive); in the experiment with COLO 205, > 10 µM (inactive); in the experiment with HCT-15, over 10 µM. Moreover, the GI50 in the experiment with HOP-92, in the experiment with Malme-3M, with NCI-H522, with OVCAR-8, in the experiment on SK-MEL-28 and in the experiment with SN12C was > 10 µM (inactive) throughout. Further, the GI50 in the experiment with SNB-75 and in the experiment on SW-620 was > 10 µM (inactive) in each case.

As for `C/C(=N\NC(=S)N1CCCCCC1)c1nccnc1C`, the GI50 in the experiment on 786-0 is 5.14 µM (inactive); with A549, 0.0331 µM (active); in the experiment with ACHN it was 0.219 µM (active); with CCRF-CEM, 0.0607 µM (active); with COLO 205, < 0.01 µM (active); in the experiment with HCT-15 it was under 0.01 µM. For the same compound, the GI50 in the experiment on Malme-3M was 11.8 µM (inactive); in the experiment with OVCAR-8, < 0.01 µM (active); in the experiment with SK-MEL-28, 0.106 µM (active); in the experiment with SN12C it was 0.285 µM (active); in the experiment on SNB-75, 0.605 µM (active); with SW-620, < 0.01 µM (active).

In the case of `CCCCCCCCCCCCCC(=O)NCC(OCC)OCC`, the GI50 is > 100 µM (inactive) in the experiment on 786-0; > 100 µM (inactive) in the experiment with A549; > 100 µM (inactive) in the experiment on ACHN; > 100 µM (inactive) with CCRF-CEM; > 100 µM (inactive) with COLO 205; over 100 µM with HCT-15. The GI50 in the experiment with HOP-92, in the experiment with Malme-3M, in the experiment on NCI-H522, in the experiment on OVCAR-8, in the experiment with SK-MEL-28 and with SN12C was > 100 µM (inactive) throughout. The GI50 in the experiment with SNB-75 and with SW-620 was > 100 µM (inactive) in each case.

For the compound `O=C1C=C(Nc2ccccc2C(=O)c2ccccc2)c2ccccc2C1=O`, the GI50 in the experiment with 786-0 is > 100 µM (inactive); in the experiment with A549, > 100 µM (inactive); in the experiment with ACHN, 45 µM (inactive); in the experiment with COLO 205, > 100 µM (inactive); in the experiment on HCT-15, 70.5 µM; in the experiment with HOP-92, 4.06 µM (inactive). For the same compound, the GI50 in the experiment with Malme-3M was > 100 µM (inactive); with NCI-H522 it was 25 µM (inactive); in the experiment with OVCAR-8, > 100 µM (inactive); with SK-MEL-28, > 100 µM (inactive); in the experiment on SN12C, 42.8 µM (inactive); with SNB-75 it was 96.6 µM (inactive). Also, in the experiment on SW-620, the GI50 was 87.9 µM (inactive).

Consider `O=C1c2ccccc2N2OC3(N4CCCC4)CCCCC3C12c1ccccc1` (stereo not drawn), for which the GI50 is 17.7 µM (inactive) in the experiment on 786-0; 21 µM (inactive) with A549; 18.5 µM (inactive) with ACHN; 18.7 µM (inactive) in the experiment with CCRF-CEM; 17.3 µM (inactive) in the experiment on COLO 205; 26.4 µM in the experiment on HCT-15. The GI50 was 16.1 µM (inactive) with HOP-92; 18.8 µM (inactive) in the experiment on Malme-3M; 14.9 µM (inactive) in the experiment on NCI-H522; 17.5 µM (inactive) with OVCAR-8; 25.4 µM (inactive) in the experiment with SK-MEL-28; 16.9 µM (inactive) with SN12C. Also, the GI50 in the experiment with SNB-75 is 34.1 µM (inactive); in the experiment on SW-620, 17.7 µM (inactive).

Consider `COC(=O)C1=C(c2cc(OC)c(OC)c(OC)c2)O[C@H](c2ccc3c(c2)OCO3)[C@H]1COC(C)=O`, for which the GI50 in the experiment with 786-0 is 29.4 µM (inactive); in the experiment with ACHN it was 26.4 µM (inactive); in the experiment with CCRF-CEM, 40.2 µM (inactive); with COLO 205, 10.7 µM (inactive); in the experiment on HCT-15, 22.1 µM; in the experiment with HOP-92, 7.24 µM (inactive). Moreover, the GI50 is 34.4 µM (inactive) in the experiment with Malme-3M; 39.3 µM (inactive) with OVCAR-8; 24.7 µM (inactive) in the experiment on SN12C; 27.3 µM (inactive) in the experiment with SNB-75; 25.2 µM (inactive) with SW-620.

On to `CCOC(=O)C(CCCNC(=O)OC(C)(C)C)N(Cc1ccc(OC)cc1OC)C(=O)CC(=O)CP(=O)(OCC)OCC` (stereo not drawn), for which the GI50 in the experiment with 786-0 is > 100 µM (inactive); in the experiment on A549 it was > 100 µM (inactive); in the experiment on ACHN it was > 100 µM (inactive); in the experiment with CCRF-CEM it was > 100 µM (inactive); with COLO 205 it was > 100 µM (inactive); in the experiment on HOP-92, 16.2 µM (inactive). The GI50 with Malme-3M was > 100 µM (inactive); in the experiment on NCI-H522, 29 µM (inactive); in the experiment on OVCAR-8, > 100 µM (inactive); with SK-MEL-28, > 100 µM (inactive); in the experiment on SN12C, > 100 µM (inactive); in the experiment with SNB-75, > 100 µM (inactive).

On to `CCOC(=O)NNC(=O)NC12CC3CC(CC(C3)C1)C2`, for which the GI50 in the experiment on 786-0 is > 100 µM (inactive); with A549, > 100 µM (inactive); with ACHN, > 100 µM (inactive); with CCRF-CEM it was > 100 µM (inactive); in the experiment with COLO 205, > 100 µM (inactive); in the experiment on HCT-15 it was over 100 µM. Further, the GI50 in the experiment with HOP-92, in the experiment on Malme-3M, with NCI-H522, in the experiment with OVCAR-8, in the experiment on SK-MEL-28 and in the experiment on SN12C was > 100 µM (inactive) throughout. In addition, the GI50 in the experiment on SNB-75 and in the experiment on SW-620 was > 100 µM (inactive) each time.

As for `COc1ccc(S(=O)(=O)N/N=C/CN2C(=O)c3ccccc3C2=O)cc1`, the GI50 in the experiment with 786-0 was > 100 µM (inactive); in the experiment on A549, > 100 µM (inactive); in the experiment on ACHN, > 100 µM (inactive); with CCRF-CEM it was > 100 µM (inactive); in the experiment on COLO 205 it was > 100 µM (inactive); with HCT-15, over 100 µM. Besides, the GI50 in the experiment on Malme-3M, in the experiment on NCI-H522, in the experiment with OVCAR-8, with SN12C, in the experiment on SNB-75 and with SW-620 was > 100 µM (inactive) in each case.

As for `O=C(CSc1nnc(Cc2ccccc2)o1)Nc1ccc(Cl)cc1[N+](=O)[O-]`, the GI50 was 16.5 µM (inactive) in the experiment with 786-0; 18.9 µM (inactive) in the experiment with A549; 12.6 µM (inactive) in the experiment on ACHN; 15.6 µM (inactive) in the experiment with CCRF-CEM; 21.9 µM (inactive) with COLO 205; 16.5 µM in the experiment with HCT-15. The GI50 in the experiment on Malme-3M is 16.4 µM (inactive); in the experiment with NCI-H522, 3.17 µM (inactive); with OVCAR-8, 29.8 µM (inactive); with SK-MEL-28 it was 15.5 µM (inactive); in the experiment on SN12C, 17.5 µM (inactive); with SNB-75, 18.9 µM (inactive). In addition, the GI50 with SW-620 was 25.1 µM (inactive).

With `CC(=O)OCc1c(O)nc2c(c1O)-c1ccccc1CC2`, the GI50 is 56.9 µM (inactive) in the experiment with 786-0; 134 µM (inactive) in the experiment on A549; 163 µM (inactive) with ACHN; 67.1 µM (inactive) with CCRF-CEM; 57 µM (inactive) in the experiment with COLO 205; 57.5 µM with HCT-15. Moreover, the GI50 in the experiment on HOP-92 is 78.5 µM (inactive); in the experiment on Malme-3M, > 35 µM (inactive); with NCI-H522, 35.6 µM (inactive); in the experiment with OVCAR-8 it was 101 µM (inactive); in the experiment on SK-MEL-28, 59.6 µM (inactive); with SN12C, 62.2 µM (inactive). In addition, in the experiment on SW-620, the GI50 was 56.4 µM (inactive).

With `CC(=O)Nc1ccc(C2[C@H]3C(=O)N(c4ccc(Cc5ccc(N6C(=O)[C@@H]7ON(c8ccccc8)C(c8ccc(NC(C)=O)cc8)[C@@H]7C6=O)cc5)cc4)C(=O)[C@H]3ON2c2ccccc2)cc1` (stereo partly drawn), the GI50 is > 100 µM (inactive) in the experiment with 786-0; > 100 µM (inactive) in the experiment on A549; > 100 µM (inactive) in the experiment with ACHN; > 100 µM (inactive) in the experiment with CCRF-CEM; 74.6 µM (inactive) in the experiment with COLO 205; over 100 µM with HCT-15. Moreover, the GI50 in the experiment with Malme-3M, in the experiment with NCI-H522, in the experiment on OVCAR-8, with SK-MEL-28, with SN12C and with SNB-75 was > 100 µM (inactive) throughout. Moreover, in the experiment with SW-620, the GI50 was > 100 µM (inactive).

For the compound `COc1cc2noc(-c3ccccc3)c2cc1OC`, the GI50 is 29.2 µM (inactive) with 786-0; 54.3 µM (inactive) in the experiment with A549; 87.1 µM (inactive) in the experiment with ACHN; 42.5 µM (inactive) in the experiment with CCRF-CEM; 55.3 µM (inactive) with COLO 205; 38.7 µM in the experiment with HCT-15. Moreover, the GI50 with HOP-92 was 44.1 µM (inactive); in the experiment on Malme-3M, > 100 µM (inactive); with NCI-H522, 36.4 µM (inactive); in the experiment with OVCAR-8 it was 64.4 µM (inactive); in the experiment on SN12C it was 34.8 µM (inactive); in the experiment with SNB-75, 4.59 µM (inactive). Also, the GI50 in the experiment on SW-620 is 57.3 µM (inactive).

As for `COCC1N=C(c2cc(OC)c(OC)c(OC)c2-c2cc3c(cc2C2OCCCO2)OCO3)O[C@H]1c1ccccc1` (stereo partly drawn), the GI50 with 786-0 was > 100 µM (inactive); with A549, > 100 µM (inactive); in the experiment on ACHN, > 100 µM (inactive); with CCRF-CEM it was > 100 µM (inactive); with HCT-15, over 100 µM; in the experiment with HOP-92, > 100 µM (inactive). Besides, the GI50 in the experiment with Malme-3M, in the experiment with NCI-H522, with OVCAR-8, with SK-MEL-28, in the experiment on SN12C and in the experiment on SNB-75 was > 100 µM (inactive) each time. The GI50 in the experiment with SW-620 is > 100 µM (inactive).

For `COc1ccc(C(Cc2cc(OC)c(OC)c(OC)c2)C(=O)O)cc1` (stereo not drawn), the GI50 in the experiment on 786-0 is 71.8 µM (inactive); in the experiment with A549, 60 µM (inactive); in the experiment on ACHN it was > 100 µM (inactive); in the experiment on CCRF-CEM it was 46 µM (inactive); in the experiment on COLO 205, > 100 µM (inactive); with HCT-15 it was 43.5 µM. Also, the GI50 is 74 µM (inactive) in the experiment with Malme-3M; > 100 µM (inactive) in the experiment with OVCAR-8; 56.6 µM (inactive) with SK-MEL-28; > 100 µM (inactive) with SN12C; 22.8 µM (inactive) in the experiment on SNB-75; 46.9 µM (inactive) in the experiment with SW-620.
